Results: patent US20260008815A1, “CYCLIC PEPTIDE OR SALT THEREOF, AND USES THEREOF” (FUJIFILM Corporation, priority 2023, published 2026)
Ends that are not written are not given here.

Experiments:
[1] = tested on: BaF3 cells stably expressing FGFR (human); experiment: BaF3 cell proliferation-promoting effect; type: cell-based; conditions: number of viable cells at the addition concentration (0.001 to 10 nmol/L) giving the largest number; 2 nights; negative control about 100 cells/well
Description: (§1) The FGFR phosphorylation ability of the cyclic peptide complex was evaluated using the BaF3 cell proliferation-promoting effect in which FGFR was stably expressed.
(§2) BaF3 cells stably expressing FGFR were established by introducing a vector (human: Sino Biologicals, HG10824-UT, bovine: sequence of Accession No. F1MNW2 was introduced into pCDNA3.1/Hygro(+) Mammalian Expression Vector (Thermo, V87020), porcine: sequence of Accession No. A0A4X1SNN3 was introduced into pCDNA3.1/Hygro(+) Mammalian Expression Vector (Thermo, V87020), and avian: sequence of Accession No. A0A8V0XB17 was introduced into pCDNA3.1/Hygro(+) Mammalian Expression Vector (Thermo, V87020)) into which FGFR gene had been incorporated, into BaF3 cells using NucleoFector (Lonza) and performing drug selection of cells into which the FGFR gene had been introduced using hygromycin.
(§3) The evaluation of the proliferation-promoting effect of BaF3 cells in which FGFR is stably expressed was performed by the following method. First, RPMI-1640 with L-Glutamine and Phenol Red (FUJIFILM Wako Pure Chemical Corporation, 189-02025) and Fetal Bovine Serum (Thermo, 10270-106) were mixed at a volume ratio of 9:1, and then heparin (STEM CELL, 07980) was added thereto such that the final concentration thereof was 8 μg/mL, thereby preparing a culture medium for evaluation (hereinafter, described as RPMI (10% FBS) medium). Next, the BaF3 cells in which FGFR had been stably expressed were washed twice with RPMI (10% FBS) culture medium, suspended in RPMI (10% FBS) culture medium in which the cyclic peptide complex had been dissolved to a final concentration of 0.001 to 10 nmol/L, and seeded in a 384-well plate. In this case, a condition in which the cyclic peptide complex was not added as a negative control was prepared. After culturing at 37° C. (5% CO2) for 2 nights, Hoechst 33342, Trihydrochloride, Trihydrate-10 mg/mL Solution in Water (Thermo, H3570), -Cellstain (registered trademark)-Calcein-AM solution (1 mg/mL DMSO solution) (DOJINDO, C396), and -Cellstain (registered trademark)-PI solution (DOJINDO, P378) were each added to RPMI (10% FBS) culture medium in a volume amount of 1/1,000 at the final concentration, and live/dead staining of the cells were performed by allowing to stand at room temperature for 1 hour, and imaging was performed using a confocal microscope (Yokogawa Electric Corporation, CQ1). The number of viable cells was calculated from the imaging data, and the cell proliferation-promoting effect was evaluated according to the following evaluation criteria. The number of viable cells in the negative control was about 100 cells/well. The evaluation result preferably satisfies the evaluation criteria A, B, or C.
(§4) At an addition concentration of the cyclic peptide complex having the largest number of viable cells, evaluation criteria is as follows.

[2] = tested on: BaF3 cells stably expressing FGFR (porcine); experiment: BaF3 cell proliferation-promoting effect; type: cell-based; conditions: number of viable cells at the addition concentration (0.001 to 10 nmol/L) giving the largest number; 2 nights; negative control about 100 cells/well
Description: as §1, §2, §3, §4

[3] = tested on: BaF3 cells stably expressing FGFR (bovine); experiment: BaF3 cell proliferation-promoting effect; type: cell-based; conditions: number of viable cells at the addition concentration (0.001 to 10 nmol/L) giving the largest number; 2 nights; negative control about 100 cells/well
Description: as §1, §2, §3, §4

[4] = tested on: BaF3 cells stably expressing FGFR (avian); experiment: BaF3 cell proliferation-promoting effect; type: cell-based; conditions: number of viable cells at the addition concentration (0.001 to 10 nmol/L) giving the largest number; 2 nights; negative control about 100 cells/well
Description: as §1, §2, §3, §4

[5] = target: T1, Recombinant Human FGFR2 alpha (IIIc) Fc Chimera Protein (Homo sapiens, UniProt P21802); experiment: SPR binding affinity of chemically synthesized cyclic peptide to immobilized FGFR; conditions: SPR binding amount at 10 nmol/L cyclic peptide, 25° C., per one molecule of FGFR; chemically synthesized product
T1 construct: Fc (chimera); purchased R&D systems 712-FR-050
T1 sequence (P21802 with tags, fused parts or gaps limits assumed): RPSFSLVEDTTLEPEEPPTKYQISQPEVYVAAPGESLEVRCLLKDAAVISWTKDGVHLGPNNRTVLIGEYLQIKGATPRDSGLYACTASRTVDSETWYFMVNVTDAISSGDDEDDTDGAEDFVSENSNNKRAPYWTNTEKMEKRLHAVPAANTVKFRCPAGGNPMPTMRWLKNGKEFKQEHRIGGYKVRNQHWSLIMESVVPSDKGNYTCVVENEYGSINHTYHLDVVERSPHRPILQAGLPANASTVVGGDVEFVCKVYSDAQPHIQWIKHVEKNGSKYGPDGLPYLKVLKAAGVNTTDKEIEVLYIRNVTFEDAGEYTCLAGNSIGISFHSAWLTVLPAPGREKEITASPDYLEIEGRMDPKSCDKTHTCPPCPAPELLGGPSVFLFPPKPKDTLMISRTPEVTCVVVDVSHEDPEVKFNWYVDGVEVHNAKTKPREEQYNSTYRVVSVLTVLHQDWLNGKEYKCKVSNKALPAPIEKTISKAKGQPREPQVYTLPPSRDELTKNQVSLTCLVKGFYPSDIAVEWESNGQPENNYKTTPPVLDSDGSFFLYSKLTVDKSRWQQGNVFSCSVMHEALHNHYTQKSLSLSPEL
Description: The binding affinity of the cyclic peptide to FGFR was evaluated using a surface plasmon resonance (SPR) method.
A CM5 sensor chip (Cytiva, 29149603) was set in Biacore-T200 (manufactured by Cytiva) which is a surface plasmon resonance device, and an HBS-EP buffer (Cytiva, BR100826) was added as a running buffer at a flow rate of 10 μL/min to equilibrate the flow channel. Next, 70 μL of a mixed aqueous solution of 0.2 mol/L 1-(3-dimethylaminopropyl)-3-ethylcarbodiimide (EDC) and 0.05 mol/L N-hydroxysuccinimide (NHS) was added to activate the sensor chip. Then, Recombinant Human FGFR2 alpha (IIIc) Fc Chimera Protein CF (R&D systems, 712-FR-050) prepared at 50 nmol/L in an Acetate 4.5 buffer (Cytiva, BR100350) was added thereto to perform immobilization at about 5000 RU. Thereafter, the blocking treatment was performed with an ethanolamine solution. In addition, in another flow channel of the same sensor chip, blocking treatment was performed immediately after activation without immobilizing FGFR.
A cyclic peptide diluted to 10 nmol/L using HBS-EP was added to each flow channel of the FGFR-immobilized sensor chip produced above at 25° C. for 10 minutes, then HBS-EP was allowed to flow as a running buffer for 30 minutes, and the binding of the cyclic peptide to FGFR was measured. Thereafter, a regeneration treatment of removing the bound cyclic peptide was performed by repeating the flow of a regeneration liquid in which sodium chloride powder was dissolved in Glysine 1.5 (Cytiva, BR100354) to a final concentration of 0.15 mol/L for 1 minute in each flow channel twice. The binding amount of the cyclic peptide was evaluated from the difference between the measured value of Biacore-T200 in the flow channel in which FGFR was immobilized and the measured value of Biacore-T200 in the flow channel in which FGFR was not immobilated, in a case where a 10 nmol/L cyclic peptide was allowed to flow.
The binding amount of the cyclic peptide evaluated above was normalized to the binding amount of the cyclic peptide molecules per one molecule of FGFR using the molecular weights of the cyclic peptide and FGFR, and the binding affinity to FGFR was evaluated according to the following evaluation criteria. The evaluation result preferably satisfies the evaluation criteria A, B, or C.

[6] = Molecular stability after reducing agent (DTT) treatment, LC; type: physicochemical; conditions: residual rate after DTT aqueous solution, room temperature, 1 hour
Description: The molecular stability of the cyclic peptide was evaluated by analyzing an aqueous solution of the cyclic peptide treated with a reducing agent by liquid chromatography (LC).
The reducing agent treatment was performed under the following conditions based on the concentration of glutathione contained in the cells. 25 μL of a 0.2 mg/mL cyclic peptide aqueous solution was prepared, 58.8 μL of a 12.6 mmol/L DTT aqueous solution was added to the aqueous solution, and the mixture was incubated at room temperature for 1 hour to obtain an aqueous solution of the cyclic peptide treated with a reducing agent. The DTT aqueous solution was used by diluting a 1 mol/L (+−)-dithiothreitol (DTT) solution (FUJIFILM Wako Pure Chemical Corporation, 044-33871) with water. The total area of all the peaks in LC/MS of the cyclic peptide before the reducing agent treatment was set to 100%, and the proportion of the total area of all the peaks in LC/MS of the aqueous solution of the cyclic peptide treated with the reducing agent was determined to calculate the residual rate of the cyclic peptide, and the molecular stability was evaluated according to the following evaluation criteria. The evaluation result preferably satisfies the evaluation criteria A, B, or C.
The LC used for the evaluation of molecular stability was set to the following conditions. • LC device: Prominence series (pump, column oven, autosampler, detector) (manufactured by Shimadzu Corporation) • Detector: photodiode array detector (SPD-M20A), measurement wavelength of 280 nm • Column: TSKgel ODS-100V, inner diameter of 4.6 mm×length of 150 mm, particle diameter of 5 μm (manufactured by Tosoh Corporation) • Eluent A: solution containing 0.1% trifluoroacetic acid as solute, and solvent is 100% water • Eluent B: solution containing 0.1% trifluoroacetic acid as solute, and solvent is 100% acetonitrile • Flow rate: 1.0 mL/min • Injection amount: 25 μL • Gradient: 20% to 50%: Eluent B (0 to 15 minutes), 100%: Eluent B (15 minutes) • Column temperature: 40° C.

Substance	Evaluation result of cell proliferative properties Human [1]	Evaluation result of cell proliferative properties Porcine [2]	Evaluation result of cell proliferative properties Bovine [3]	Evaluation result of cell proliferative properties Avian [4]	Evaluation result of binding affinity to FGFR [5]	Evaluation result of reductive stability [6]
459 (QCPQNFINPVQWRYFQHYKNQCPQNFINPVQWRYFQHYKNK; also: cyclic peptide) [compound 459]	A (The number of viable cells is 1,000 cells/well or more.)	A (The number of viable cells is 1,000 cells/well or more.)	B (The number of viable cells is 400 cells/well or more and less than 1,000 cells/well.)	B (The number of viable cells is 400 cells/well or more and less than 1,000 cells/well.)		
458 (QCPQNFINPVQWRYFQHYKNKQCPQNFINPVQWRYFQHYKNK; also: cyclic peptide) [compound 458]	A (The number of viable cells is 1,000 cells/well or more.)	A (The number of viable cells is 1,000 cells/well or more.)	A (The number of viable cells is 1,000 cells/well or more.)	A (The number of viable cells is 1,000 cells/well or more.)		
457 (QCPQNFINPVQWRYFQHYKNKQCPQNFINPVQWRYFQHYKNK; also: cyclic peptide) [compound 457]	A (The number of viable cells is 1,000 cells/well or more.)	A (The number of viable cells is 1,000 cells/well or more.)	A (The number of viable cells is 1,000 cells/well or more.)	A (The number of viable cells is 1,000 cells/well or more.)		
460 (YCEENYLDPEQYQYFIYFKYKYCEENYLDPEQYQYFIYFKYK; also: cyclic peptide) [compound 460]	A (The number of viable cells is 1,000 cells/well or more.)	A (The number of viable cells is 1,000 cells/well or more.)	A (The number of viable cells is 1,000 cells/well or more.)	A (The number of viable cells is 1,000 cells/well or more.)		
455 (KCPQNFINPVQWRYFQHYKNGSGSGSSGSSSGSSKCPQNFINPVQWRYFQHYKN; also: cyclic peptide) [compound 455]	A (The number of viable cells is 1,000 cells/well or more.)	A (The number of viable cells is 1,000 cells/well or more.)	B (The number of viable cells is 400 cells/well or more and less than 1,000 cells/well.)	C (The number of viable cells is 200 cells/well or more and less than 400 cells/well.)		
454 (XHENYLDPEQYQYFHYFKYKKK; Description of Artificial Sequence: Cyclic peptide) [compound 454]					C (The binding amount is 0.1 molecules of cyclic peptide/one molecule of FGFR or more and less than 0.5 molecules of cyclic peptide/one molecule of FGFR.)	B (The residual rate of the cyclic peptide is 70% or more and less than 90%)
435 (QXPQNFINPVQWRYFQHYXNKKK; not fully specified; Description of Artificial Sequence: Cyclic peptide) [compound 435]					A (The binding amount is 0.7 molecules of the cyclic peptide/one molecule of FGFR or more.)	A (The residual rate of cyclic peptide is 90% or more.)
440 (QXPQNFINPVQWRYFQHYXNKKK; not fully specified; Description of Artificial Sequence: Cyclic peptide) [compound 440]					A (The binding amount is 0.7 molecules of the cyclic peptide/one molecule of FGFR or more.)	A (The residual rate of cyclic peptide is 90% or more.)
